Experimental findings from patent publication US20220144775A1, “HYDRAZIDE COMPOUND AND KINASE INHIBITOR” (NISSAN CHEMICAL CORPORATION, priority 2019, published 2022) are described below.

Structures are written as SMILES.

Assay [1] has as its system mouse partial liver resection model. Put plainly: Liver weight increase in mouse partial liver resection model. Format: in vivo. The settings on record: BALB/c mice; intraperitoneal, 4 times every 24 hr; about 30% of the liver removed; FIG. 2. The procedure: A partial liver resection model in which the mouse liver was partially resected was prepared as described below, and the liver weight increasing effect of the compound of the present invention was evaluated by comparing the liver weight immediately after the resection with the liver weight 3 days after the resection.
A 0.5 w/v % methylcellulose aqueous solution (0.5% MC, manufactured by FUJIFILM Wako Pure Chemical Corporation) and A-007 were evaluated. A-007 was suspended in 0.5% MC, and prepared at a final concentration of 1 mg/mL.
Mice, BALB/cAnNCrlCrlj, 5-week-old, male, were purchased from CHARLES RIVER LABORATORIES JAPAN. In terms of the 0.5% MC administration-control group, 0.5% MC 10 mL/kg was administered intraperitoneally once, and 24 hr later, the entire liver was isolated and the liver weight was measured (n=3). As used herein, the control group means a group without removal of the liver. […]
Immediately after the second administration, the abdomen was opened under isoflurane (manufactured by Intervet Co., Ltd.) anesthesia, and the root of liver lobe was ligated with a suture thread, and about 30% of the liver was finally removed by excising the tip of the ligated liver lobe. After that, the abdomen was closed, and 24 hr after the final administration, the entire liver was removed and the liver weight was measured (n=3). […]

The subject of another assay is small intestine organoid. Put plainly: Mouse small intestine organoid culture. It counts as cell-based. Particulars: day 9 of culture, 10 μM. The procedure:
(§1) 7-Week-old male C57BL/6N mice were purchased from CHARLES RIVER LABORATORIES JAPAN, INC. After the acclimation period, the small intestine and colon were isolated under anesthesia. Crypts were collected from the excised small intestine and colon according to the protocol of IntestiCult (trade mark) Organoid Growth Medium. To be specific, the inside of the intestine was washed with 1 mL of cold PBS, then incised vertically, and washed 3 times with 1 mL of cold PBS. The intestine was transferred to a 10 cm petri dish filled with cold PBS, washed thoroughly again, and transferred to a 50 mL tube containing 15 mL of cold PBS while cutting into 2 mm pieces. […] The number of crypts contained in 10 μL of the suspension was counted under a microscope to determine the concentration, and the mixture was dispensed into a 15 mL tube at 800 crypts/tube, and centrifuged at 4° C., 200 g×5 min. […] Organoids were image-analyzed over time by Cell3iMager duos (SCREEN Holdings Co., Ltd.). For image analysis, the number of crypts having a diameter of 30-200 μm was counted as the number of seeded crypts on the first day of culture, and then those grown to 70 μm or more over time were counted as organoids, and the organoid formation rate from the crypts was calculated. At that time, the average diameter of the organoids measured at the same time was calculated. […]

A further assay concerns colon organoid. Put plainly: Mouse colon organoid culture. Format: cell-based. Particulars: day 21 of culture, 10 μM. How it is done:
as §1

For the compound `CC/C(=N\NC(=O)C(C)Nc1cncc(F)c1)c1ccc(O)c(C)c1O` (centres unmarked) [A-007], the “changes in the liver weight ratio” value in assay [1] is given as “has an action of promoting a liver weight increase”. For the same compound, the “formation rate (%)” value in the assay with small intestine organoid (DMSO 39) is reported as 70%; in the assay on colon organoid (DMSO 14), 49%. The results for the “average diameter (μm)” value in the assay with small intestine organoid (DMSO 202) and in the assay on colon organoid (DMSO 207) were 257 μm and 251 μm, respectively.
